Reference: patent publication US12152016B2, “Aryl hydrocarbon receptor modulators and uses thereof” (Beth Israel Deaconess Medical Center, Inc., priority 2018, dated 2024)
pEC50, pIC50: −log10 of the molar value.

Tests used:
[1] = tested on: AHR-dependent transcription of the CYP1A1 gene; test: CYP1A1 induction in mouse macrophages; format: cell-based
Method: (§1) Mouse macrophages were also used to test AHR-dependent transcription of the CYP1A1 gene in vivo. Finally, the activity of exemplary compounds of Formula (I) described herein was tested in the human […] cell line U937. The U937 cell line is derived from a patient with diffuse histiocytic lymphoma. Tables 2-4 summarize structure-activity relationship data collected for exemplary, non-limiting compounds of Formula (I) described herein.

[2] = target: T1, aryl hydrocarbon receptor (AHR) (Homo sapiens, UniProt P35869); test: XRE-driven luciferase reporter assay, human HepG2; conditions: for XRE luciferase Emax (fold): fold over vehicle; for XRE luciferase Emax (footnote c): Emax defined as fold increase at highest concentration tested (10 μM); for fold less active / fold decrease in activity: AHR activity relative to compound #10
T1 sequence (P35869 11-848): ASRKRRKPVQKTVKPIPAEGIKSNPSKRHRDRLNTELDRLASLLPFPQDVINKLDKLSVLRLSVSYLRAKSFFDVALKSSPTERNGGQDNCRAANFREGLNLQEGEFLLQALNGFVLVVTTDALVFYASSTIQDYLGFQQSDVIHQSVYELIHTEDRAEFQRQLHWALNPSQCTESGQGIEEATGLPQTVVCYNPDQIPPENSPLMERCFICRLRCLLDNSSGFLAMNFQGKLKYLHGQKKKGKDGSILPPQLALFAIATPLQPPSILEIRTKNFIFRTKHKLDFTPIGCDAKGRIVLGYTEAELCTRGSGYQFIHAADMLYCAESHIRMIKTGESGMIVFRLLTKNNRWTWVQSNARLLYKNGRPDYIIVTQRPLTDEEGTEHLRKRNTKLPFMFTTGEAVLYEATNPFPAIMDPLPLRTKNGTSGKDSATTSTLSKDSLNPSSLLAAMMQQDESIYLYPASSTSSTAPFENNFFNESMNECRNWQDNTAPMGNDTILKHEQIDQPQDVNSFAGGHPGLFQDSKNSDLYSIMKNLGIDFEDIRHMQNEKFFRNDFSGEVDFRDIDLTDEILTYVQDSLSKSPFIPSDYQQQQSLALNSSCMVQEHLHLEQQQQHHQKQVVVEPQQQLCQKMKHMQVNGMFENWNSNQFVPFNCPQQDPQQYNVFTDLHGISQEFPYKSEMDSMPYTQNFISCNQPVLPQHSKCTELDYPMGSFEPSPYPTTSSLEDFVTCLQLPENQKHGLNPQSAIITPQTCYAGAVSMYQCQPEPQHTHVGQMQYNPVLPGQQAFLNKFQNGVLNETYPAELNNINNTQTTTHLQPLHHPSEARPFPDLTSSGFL

[3] = tested on: AHR-dependent transcription of the CYP1A1 gene; test: CYP1A1 induction in human U937 cells; format: cell-based; conditions: Human U937, 1 μM
Method: as §1

[4] = XRE luciferase EC50, Human HepG2, least square curve fitting, >10,000 = does not reach 50% of Emax of ITE at 10 μM (highest concentration tested)
[5] = XRE luciferase EC50 (footnote a), Human HepG2, EC50 defined as concentration induced 50% of Emax of ITE

SMILES | CYP1A1 induction (% of ITE ± SEM) ([1]; 50 nM) | CYP1A1 induction (% of ITE ± SEM) ([1]; 5 μM) | XRE luciferase Emax (fold) ([2]; Human HepG2) | pEC50 [2, 4] | other results
O=C(OC1CCCCC1)c1cccc(C(=O)c2c[nH]c3ccccc23)n1 [Compound 2] | 19 ± 4 % of ITE | 95 ± 7 % of ITE | 55 fold | 4.92 | –
O=C(O)c1cccc(C(=O)c2c[nH]c3ccccc23)n1 [Compound 3] | 27 ± 17 % of ITE | 97 ± 16 % of ITE | 47 fold | 6.19 | –
CN(C)C(=O)c1cccc(C(=O)c2c[nH]c3ccccc23)n1 [Compound 4] | – | 2.5 ± 1.4 % of ITE | 23 fold | < 5.00 | –
COc1cccc(C(=O)c2c[nH]c3ccccc23)n1 [Compound 5] | 168 ± 86 % of ITE | 101 ± 33 % of ITE | 48 fold | 7.02 | CYP1A1 induction (% of ITE ± SEM) ([1]; 5 nM): 57 ± 22 % of ITE; CYP1A1 induction (% of ITE ± SEM) [3]: 165 ± 27 % of ITE
O=C(c1cccc(Cl)n1)c1c[nH]c2ccccc12 [Compound 6] | 86 ± 47 % of ITE | – | – | – | XRE luciferase Emax (footnote c) ([2]; Human HepG2): (109)^c fold; pEC50 [2, 5]: 7.54
COC(=O)c1cccc(C(=O)c2c[nH]c3ccccc23)c1 [Compound 8] | 3 ± 1 % of ITE | – | – | < 5.00 | XRE luciferase Emax (footnote c) ([2]; Human HepG2): (2.1)^c fold
COC(=O)c1cccc(C(=O)c2cn(C)c3ccccc23)n1 [Compound 13] | 29 ± 10 % of ITE | 50 ± 20 % of ITE | 55 fold | 6.72 | –
COC(=O)c1cccc(C(=O)c2c[nH]c3ccc(Cl)cc23)n1 [Compound 15] | 150 ± 36 % of ITE | 89 ± 44 % of ITE | 62 fold | 8.12 | –
COC(=O)c1cccc(C(=O)c2c[nH]c3cc(Cl)ccc23)n1 [Compound 16] | 169 ± 59 % of ITE | 122 ± 48 % of ITE | – | – | XRE luciferase Emax (footnote c) ([2]; Human HepG2): (141)^c fold; pEC50 [2, 5]: 8.80
COC(=O)c1cccc(C(=O)c2c[nH]c3c(Cl)cccc23)n1 [Compound 17] | 49 ± 19 % of ITE | – | 68 fold | 8.89 | –
COC(=O)c1cccc(C(=O)c2c[nH]c3ncccc23)n1 [Compound 18] | 11 ± 4 % of ITE | – | 42 fold | 7.74 | –
COC(=O)c1cccc(C(=O)c2c[nH]c3c4c(ccc23)CCC4)n1 [Compound 21] | 129 ± 8 % of ITE | 118 ± 5 % of ITE | 53 fold | 7.57 | –
COC(=O)c1ccc(C(=O)c2c[nH]c3ccccc23)cn1 [Compound 23] | – | 65 ± 9 % of ITE | 74 fold | 5.33 | –
COC(=O)c1ccc(C(=O)c2c[nH]c3ccccc23)cc1 [Compound 25] | 20 ± 16 % of ITE | – | – | – | –
COC(=O)c1ccccc1C(=O)c1c[nH]c2ccccc12 [Compound 26] | 10 ± 7 % of ITE | – | – | – | –
COc1ccccc1C(=O)c1c[nH]c2ccccc12 [Compound 27] | 6 ± 1 % of ITE | – | – | – | –
COc1ccc(C(=O)c2c[nH]c3ccccc23)cc1 [Compound 28] | 19 ± 8 % of ITE | – | – | – | –
COc1cnc(C(=O)c2c[nH]c3ccccc23)cn1 [Compound 30] | – | 41 ± 3 % of ITE | – | – | XRE luciferase Emax (footnote c) ([2]; Human HepG2): (30)^c fold; pEC50 [2, 5]: 8.09
O=C(c1cccc(N2CCOCC2)n1)c1c[nH]c2ccccc12 [Compound 110, 1H-indol-3-yl-(6-morpholino-2-pyridyl)methanone] | – | 46 ± 4 % of ITE | 59 fold | 7.21 | fold less active / fold decrease in activity [2]: ~20 fold
O=C(c1ccccn1)c1c[nH]c2ccccc12 [Compound 124, 1H-indol-3-yl(2-pyridyl)methanone] | – | 15 ± 6 % of ITE | 20 fold | < 5.00 | –
O=C(O)c1cccc(C(=O)c2c[nH]c3ccccc23)n1 [Compound 145, 6-(1H-indole-3-carbonyl)pyridine-2-carboxylic acid] | – | – | – | – | pIC50 [2]: 6.19
CCOC(=O)c1cccc(C(=O)c2c[nH]c3ccccc23)n1 [Compound 147, ethyl 6-(1H-indole-3-carbonyl)pyridine-2-carboxylate] | 8 ± 2 % of ITE | 52 ± 28 % of ITE | 40 fold | 6.08 | fold less active / fold decrease in activity [2]: > 250 fold
COC(=O)c1cccc(C(=O)c2c[nH]c3ccccc23)c1 [Compound 202, methyl 3-(1H-indole-3-carbonyl)benzoate] | – | – | – | – | CYP1A1 induction (% of ITE ± SEM) [3]: 3 ± 1 % of ITE

Further lines, with some results ahead:

CYP1A1 induction (% of ITE ± SEM) ([1]; 50 nM) | CYP1A1 induction (% of ITE ± SEM) ([1]; 5 μM) | XRE luciferase Emax (fold) ([2]; Human HepG2) | pEC50 [2, 4] | SMILES | other results
22 ± 11 % of ITE | 128 ± 11 % of ITE | 37 fold | 6.43 | CC(C)OC(=O)c1cccc(C(=O)c2c[nH]c3ccccc23)n1 [Compound 1] | –
– | 0.6 ± 0.2 % of ITE | – | – | O=C(c1ccccc1)c1c[nH]c2ccccc12 [Compound 7] | –
2 ± 1 % of ITE | 26 ± 10 % of ITE | – | < 5.00 | COC(=O)c1ccc(C(=O)c2c[nH]c3ccccc23)nc1 [Compound 11, methyl 6-(1H-indole-3-carbonyl)pyridine-3-carboxylate] | XRE luciferase Emax (footnote c) ([2]; Human HepG2): (2.3)^c fold
5 ± 3 % of ITE | – | – | – | CC(=O)Oc1cccc(C(=O)c2c[nH]c3ccccc23)c1 [Compound 12] | –
141 ± 83 % of ITE | – | – | < 5.00 | COC(=O)c1cccc(C(=O)c2c[nH]c3cccc(Cl)c23)n1 [Compound 14] | XRE luciferase Emax (footnote c) ([2]; Human HepG2): (19)^c fold
121 ± 12 % of ITE | 120 ± 13 % of ITE | 131 fold | 5.74 | COC(=O)c1cccc(C(=O)c2c[nH]c3ccc(OC)cc23)n1 [Compound 19] | –
138 ± 8 % of ITE | 144 ± 20 % of ITE | 55 fold | 8.21 | COC(=O)c1cccc(C(=O)c2c[nH]c3ccc(Br)cc23)n1 [Compound 20] | –
57 ± 5 % of ITE | 105 ± 3 % of ITE | – | – | COC(=O)c1cccc(C(=O)c2c[nH]c3c2ccc2ccccc23)n1 [Compound 22] | XRE luciferase Emax (footnote c) ([2]; Human HepG2): (121)^c fold; pEC50 [2, 5]: 7.85
99 ± 18 % of ITE | 59 ± 22 % of ITE | – | – | COC(=O)c1ccc(C(=O)c2c[nH]c3ccccc23)s1 [Compound 24] | CYP1A1 induction (% of ITE ± SEM) ([1]; 5 nM): 60 ± 13 % of ITE; CYP1A1 induction (% of ITE ± SEM) [3]: 244 ± 28 % of ITE
– | 44 ± 2 % of ITE | 65 fold | 5.59 | COc1cc(C(=O)c2c[nH]c3ccccc23)ccn1 [Compound 29] | –
